Results published in article PMC5564531, “Evaluation of radiofluorinated carboximidamides as potential IDO-targeted PET tracers for cancer imaging” (Oncotarget, 2017).

How the values were obtained:
[1] = In vitro stability in mouse serum by radio-TLC; assay type: in vitro ADME; details: 37°C, 3 h
Protocol: Two-hundred microliter samples were collected at 3 h and analyzed by radio-TLC.

[2] = Lipophilicity, shake-flask method (n-octanol/PBS pH 7.4); assay type: physicochemical; details: n-octanol/buffer pH 7.4, n=3
Protocol: [^18F]IDO49 (2-30 kBq in 30μL of water) was added to a two-layer system of n-octanol (500 μL) and 0.1 M phosphate buffered saline (PBS) pH 7.4 (500 μL) in an Eppendorf vial. The vessel was vortexed for 3min and then centrifuged at 10,000 rpm for 2 min. An aliquot of each layer (100 μL) was assessed for radioactivity in a wipe counter. The partition coefficient (logD7.4) was calculated as the decimal logarithm of the ratio between the counted radioactivity in the n-octanol layer and the counted radioactivity in the aqueous layer (count of n-octanol sample – count of background) / (count of PBS sample – count of background). CLogP (calculated LogP) values were determined using CHEMBIODRAW ULTRA 12.0 software (Cambridge soft. Perkin-Elmer, Waltham, MA, USA).

[3] = molecular target: IDO1 in Hela cells (Homo sapiens, UniProt P14902); test: Competitive cell-binding assay of [18F]IDO49 on IFN-γ treated HeLa cells; details: inhibitors 1-10000 nM, 30 min incubation
Protocol: Then the cells were rinsed with PBS (3 × 0.5 mL) to remove any unbound radioactive materials, subsequently lysed with 150 μL of trypsin-EDTA, and incubated for 5 min at 37 °C. Finally the cell digestion solution was collected and mixed with another 150 μL of PBS into each well. All measurements were performed with a γ-counter (Wizard; PerkinElmer). The specificities of radioligands were determined as a percentage.

[4] = tested on: Hela tumor xenografts; test: MicroPET imaging of HeLa tumor xenografts with rHu IFN-γ treatment; assay type: in vivo, mouse; details: 60 min postinjection, IFN-γ treated HeLa tumor bearing mice, p < 0.05
Protocol: Female athymic C57BL/6 nude mice (4-6 weeks old) were ordered from Charles River Laboratories (Stone Ridge, NY, U.S.A.) and housed in a temperature and humidity controlled room. After 7 to 14 days of acclimatization, a total of 5 ×10^6 Hela cells were inoculated subcutaneously in 200 μL serum-free medium into the right flank of hind leg. Once tumors reached an appropriate size (3-4 mm in diameter) the mice were randomized into 5 groups (4/group). Then the mice in each group were randomized into two subgroups (rHu IFN- γ treatment or no rHu IFN- γ treatment). All the rHu IFN- γ treatment mice were injected i.p. of 1.5×10^5 U rHu IFN- γ /mouse/day. Group one mice were anesthetized by gas inhalation (2% vol/vol isoflurane in oxygen) 24 h later. Then the mice were euthanized and tumor tissues were dissected for further IDO1 western blotting and IHC. The same operation was repeated at 48h, 72h, 96h and 120h points.
In order to evaluate the in vivo imaging performance of [^18F]IDO49 to IDO1 tumors, microPET imaging was performed on nude mice bearing Hela tumor xenografts with and without rHu IFN- γ treatment treatment using the Inveon small-animal PET/CT scanner (Siemens). Anesthesia was induced with 4− 5% isoflurane and maintained with 1− 3% isofluorane delivered with a mixed air/oxygen through a closed nose cone throughout the PET imaging session. […]

[5] = molecular target: T1, Human IDO (Homo sapiens, UniProt P14902); test: IDO enzyme inhibition assay (kynurenine formation, absorbance 492 nm); assay type: biochemical; details: recombinant human IDO; mean of n ≥ 3, ± SD
T1 construct: purchased Enzo Life Sciences (enzolifesciences.com) ALX-201-333-C050
Protocol: (§1) The percent inhibition at individual concentrations was determined and the average values of duplicates were obtained. The data was processed using nonlinear regression to generate IC50 values (Prism Graphpad).

[6] = molecular target: T2, IDO1 in IFN-γ stimulated HeLa cells (Homo sapiens, UniProt P14902); test: IDO HeLa cells assay (IFN-γ induced IDO activity, kynurenine in supernatant); assay type: cell-based; details: IFN-γ 50 ng/mL, 48 h incubation, read-out: Inhibition of IFN-γ induced IDO activity in HeLa cells (IC50)
T2 construct: native IDO1 in HeLa cells; endogenous in cells; host or cells: HeLa cells stimulated with human IFN-γ
Protocol: as §1

[7] = tested on: Hela, PANC02, HCT116, and 4T1 cells; test: HeLa cell uptake of radioligands; assay type: cell-based
Protocol: HeLa cells were seeded in a 24 well culture plate at a density of 2 × 10^4 per well in 400 μL culture media w/ FBS (n=3). After overnight incubation (16 h), human IFN-γ (25ng/well, 50 ng/mL final concentration) in 100 μL DMEM with FBS were added into cells. The cells were rinsed with phosphate-buffered saline (PBS), 500 μL of Earle's Minimum Essential Medium (EMEM) (ATCC 30-2003), and 10 % fetal bovine serum was added to the culture wells. […] At each given time point, the cell supernatants were discarded and cells were washed 3 times with PBS (0.5 mL).

[8] = tested on: IDO1; set-up: method as in PMID 19507862; details: in both biochemical and cellular assays; cited from earlier work
[9] = tested on: IDO1; set-up: method as in PMID 20197554, PMID 20124451; details: Phase I dose-escalation trial, generally well-tolerated doses; cited from earlier work
[10] = rapid clearance rate; species and reference not given; cited from earlier work

T2 sequence (P14902 whole entry): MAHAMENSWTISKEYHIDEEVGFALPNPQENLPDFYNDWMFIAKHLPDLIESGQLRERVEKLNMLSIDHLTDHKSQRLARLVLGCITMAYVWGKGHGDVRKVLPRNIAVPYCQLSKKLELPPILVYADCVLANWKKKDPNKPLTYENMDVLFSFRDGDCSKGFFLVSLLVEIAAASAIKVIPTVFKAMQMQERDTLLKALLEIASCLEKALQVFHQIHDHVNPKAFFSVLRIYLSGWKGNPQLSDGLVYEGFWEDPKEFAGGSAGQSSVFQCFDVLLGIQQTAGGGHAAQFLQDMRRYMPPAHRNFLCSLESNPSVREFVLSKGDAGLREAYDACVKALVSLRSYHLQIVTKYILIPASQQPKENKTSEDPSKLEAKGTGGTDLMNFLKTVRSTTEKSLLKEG
T1 sequence (P14902 whole entry): as above
Chain of IDO1 in Hela cells (P14902 whole entry): as above

Compound: ON=C(Nc1ccc(F)c(Cl)c1)c1nonc1NCC[18F] [[^18F]IDO49]
- radioactivity in the intact radioligand [1]: > 95%
- logD ([2]; n-octanol/PBS, read-out: logD7.4): 1.37 ± 0.02
- [18F]IDO49 uptake in Hela cells when co-incubated with NLG919 and INCB024360 [3]: decreased in a dose-dependent manner
- tumor to muscle (T/M) uptake ratio, peak [4]: 2.29 ± 0.05

Compound: ON=C(Nc1ccc(F)c(Cl)c1)c1nonc1NCCF [IDO49, N-(3-chloro-4-fluorophenyl)-4-((2-fluoroethyl)amino)-N'-hydroxy-1,2,5-oxadiazole-3-carboximidamide]
- IC50 [5]: 95.5 ± 10.4 nM
- IC50 [6]: 11.9 nM

Compound: Cn1cc(C[C@H](N)C(=O)O)c2ccccc21 [1-L-MT, reference compound]
- effect on uptake of [18F]IDO5L by HeLa at 120 min ([7]; 1000 μM 1-L-MT, n=4): strong inhibition

Compound: NS(=O)(=O)NCCNc1nonc1C(=NO)Nc1ccc(F)c(Br)c1 [INCB024360]
- inhibition of IDO1 activity [9]: greater than 90%
- t1/2 (clearance rate) [10]: < 30 min

Compound: Nc1nonc1/C(=N/O)Nc1ccc([18F])c(Cl)c1 [[^18F]IDO5L]
- radioactivity in the intact radioligand [1]: > 95%
- logD7.4 [2]: 2.13 ± 0.11
- time of peak cellular uptake ([7]; Hela, PANC02, HCT116 and 4T1 cells, assayed at 30, 60, 120 mins, n=3): 60 min
